The numbers were not newly measured in US20050202101A1, “Method and composition for preventing or reducing the symptoms of insulin resistance syndrome” (Interhealth Nutraceuticals Incorporated, priority 2001, published 2005), which cites them from elsewhere.

The data set deals with obese women. The following applies: with exercise.

Regarding chromium picolinate, the body weight change entry is listed as “significant weight gain”.
